Legend:
HIF-1α [1] = experiment: HIF-1α stabilization in human kidney cell line (HK-2); type: cell-based; conditions: HK-2 treated with CoCl2, metabolites 6 hours
HIF-1α [2] = tested on: HIF-1α
Text: HIF-1α is stabilized in Mrs2−/− mice. To examine the intrinsic role of Mrs2, Mrs2^−/− mice were challenged to LPS-induced inflammatory response. It was noticed that there was a barely detectable HIF-1α stabilization in control but a significant HIF-1α protein accumulation following LPS stimulation in Mrs2^−/− hepatocytes (Daw et al., 2020). […] It was envisioned that loss of Mrs2 in hepatocyte mitochondria might control metabolite fluxes that regulates HIF-1α stability under normoxic conditions. HIF-1α is the most commonly studied transcription factor that responds to oxygen tension and its stabilization controls numerous metabolic cascades, including glycolysis and oxidative phosphorylation (Kaelin and Ratcliffe, 2008; Lum et al., 2007; Semenza, 2013). A targeted metabolite screen was conducted to identify whether these metabolites potentially altered in Mrs2^−/− control HIF-1α stabilization. WT hepatocytes were treated with the PHD inhibitor FG-4952 for 6 hours in the presence or absence of metabolites (Buckley et al., 2012). […] Next it was explored whether citric acid mediated HIF-1α destabilization is a hydroxylation dependent mechanism by reconstitution of hydroxylation-dead mutant HIF-1α in COS-7 cells (Yan et al., 2007). […] Next tested the potency of citric acid and sodium citrate was tested. Hepatocytes isolated from WT or Mrs2^−/− mice were treated for 6 hours. HIF-1α stabilization was less affected by di- or tri-sodium citrate than by citric acid (FIG. 9G). […] The citric acid-mediated HIF-1α destabilization was intact in multiple chemical modalities (FIG. 9H) and the intracellular chelation of Mg^2+ ions suppressed FG-4952-induced HIF-1α stabilization (FIG. 9I). […] Furthermore, COS-7 cells were more sensitive to the HIF-1α stabilizing effect compared to hepatocytes. […] Next HIF-1α abundance was tested in liver tissues harvested from dietary cohorts. HIF-1α protein expression/stabilization was prominent in both Mrs2^−/− and Mrs2^−/− WD, whereas HIF-1α protein was nearly completely absent in WT WD (FIG. 9M). This supports the elevation of HIF-1α protein level as a key mechanism driving transcription changes in Mrs2^−/− WD livers.
Immunoblotting. Crushed tissues were homogenized in lysis buffer (ThermoFisher) on ice for one minute (20-30 strokes) using an automatic Dounce homogenizer set to 2000 RPM. Whole cell lysate was prepared in lysis buffer (Abcam) using 3 sets of 3-second sonication (power level 3) intervals on ice. Protein concentration was estimated using Pierce BCA assay kit and samples were prepared and heated for 90° C. for 5 minutes. Equal amounts of protein were loaded and separated on 4%-12% Bis-Tris polyacrylamide gel (Thermo Fisher Scientific), transferred to a PVDF membrane, blocked for 1-2 h using 5% fat free skim milk, washed and finally, probed with corresponding antibodies as specified below. Antibodies were from Cell Signaling Technology (HIF-1α and Hydroxy HIF-1α dilution 1:3000, MCU dilution 1.5000, MICU1 dilution 1:3000), Abcam Abcam (CPT-1a, CPT-2, OXPHOS cocktail dilution 1:3000), ZYMED Laboratories (β-actin; dilution 1:1,000), and Amersham (secondary antibodies conjugated with peroxidase). Development was done using X-ray film using a series of timed exposures and Image J was used for densitometric analysis on scanned film images.

HIF-1α [3] = experiment: HIF-1α stabilization in COS-7 cells; type: cell-based
Text: HIF-1α is stabilized in Mrs2−/− mice. To examine the intrinsic role of Mrs2, Mrs2^−/− mice were challenged to LPS-induced inflammatory response. It was noticed that there was a barely detectable HIF-1α stabilization in control but a significant HIF-1α protein accumulation following LPS stimulation in Mrs2^−/− hepatocytes (Daw et al., 2020). […] It was envisioned that loss of Mrs2 in hepatocyte mitochondria might control metabolite fluxes that regulates HIF-1α stability under normoxic conditions. HIF-1α is the most commonly studied transcription factor that responds to oxygen tension and its stabilization controls numerous metabolic cascades, including glycolysis and oxidative phosphorylation (Kaelin and Ratcliffe, 2008; Lum et al., 2007; Semenza, 2013). A targeted metabolite screen was conducted to identify whether these metabolites potentially altered in Mrs2^−/− control HIF-1α stabilization. WT hepatocytes were treated with the PHD inhibitor FG-4952 for 6 hours in the presence or absence of metabolites (Buckley et al., 2012). […] Next it was explored whether citric acid mediated HIF-1α destabilization is a hydroxylation dependent mechanism by reconstitution of hydroxylation-dead mutant HIF-1α in COS-7 cells (Yan et al., 2007). […] Next tested the potency of citric acid and sodium citrate was tested. Hepatocytes isolated from WT or Mrs2^−/− mice were treated for 6 hours. […]

Mrs2 [4] = molecular target: T1, Mrs2 (Mus musculus, UniProt Q5NCE8); experiment: Mrs2-mediated mMg2+ uptake in digitonin permeabilized hepatocytes (Mag-Green, extramitochondrial Mg2+ clearance); type: cell-based, murine; conditions: permeabilized cell system
T1 construct: endogenous in cells; host or cells: primary murine hepatocytes (C57BL/6J mice)
T1 sequence (Q5NCE8 54-434): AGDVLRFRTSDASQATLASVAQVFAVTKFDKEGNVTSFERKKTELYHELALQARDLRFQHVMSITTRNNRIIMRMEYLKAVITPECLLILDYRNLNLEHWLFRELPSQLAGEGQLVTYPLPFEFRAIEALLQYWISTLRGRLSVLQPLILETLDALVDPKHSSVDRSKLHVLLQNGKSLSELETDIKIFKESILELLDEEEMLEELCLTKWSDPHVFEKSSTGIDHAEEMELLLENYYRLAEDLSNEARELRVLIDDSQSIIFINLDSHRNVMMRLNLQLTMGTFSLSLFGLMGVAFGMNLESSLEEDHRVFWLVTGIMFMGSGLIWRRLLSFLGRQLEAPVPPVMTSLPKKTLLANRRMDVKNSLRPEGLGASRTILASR
Description: (§1) Bacterial CorA forms a pentameric complex that selectively drives Mg2+ uptake in an electrogenic manner. […] Mrs2 is the eukaryotic homologue of CorA and contains two transmembrane domains with a well-conserved F/Y-G-M-N motif; therefore, CorA blockers were tested to determine if they alter Mrs2-mediated mMg^2+ uptake (Moomaw and Maguire, 2008). Digitonin permeabilized hepatocytes were utilized to measure the inhibitory effect and determine its IC50. Permeabilized cells were treated with CPACC followed by a 1 mM bolus of MgCl2 (FIG. 10B). A 1 mM Mg^2+ bolus was added after baseline recording, and the extramitochondrial Mg^2+ clearance was used as a read-out for Mrs2-mediated mMg^2+ uptake using Mag-Green as a Mg^2+ indicator. […] We next investigated Mrs2 inhibition in intact hepatocytes loaded with Mag-Green-AM. […] Next CPACC was examined to determine if it had any effect on MCU-mediated mCa^2+ uptake in permeabilized cells. […] The availability of the compound to intact cells was measured using graphite furnace atomic absorption spectroscopy (GFAAS) and bicinchoninic acid in parallel.
Spectrofluorimetric measurement of mitochondrial Mg^2+ and Ca^2+ dynamics and citrate mediated MagGreen fluorescence quenching. Fluorescence measurements were conducted in a multiwavelength excitation dual wavelength emission spectrofluorometer (Delta RAM, PTI, HORIBA). […]

Mrs2 [5] = molecular target: T1, Mrs2; experiment: Mrs2 inhibition in intact hepatocytes loaded with Mag-Green-AM, confocal, L-lactate stimulation; type: cell-based, murine
Description: as §1, with “parallel. […] Encouraged by the potent inhibitory effect of CPACC and cellular permeability, we next measured the cytotoxicity of CPACC in cells. […]” for “parallel.”
Evaluation of dose dependent Mrs2 inhibition by confocal live cell imaging system. […] Data was quantified using Leica Application Suite X.

Structure (SMILES) | HIF-1α destabilizing activity (HIF-1α [1]) | response of hepatocytes from Mrs2^−/− mice to the destabilizing effect (HIF-1α [2]) | HIF-1α destabilizing effect in homogenate (HIF-1α [2]; FG-4592 treated WT hepatocyte homogenate) | time course of HIF-1α destabilization (HIF-1α [2]; FG-4592 treated hepatocytes) | effect on HIF-1α stabilized by PHD inhibitor (HIF-1α [2]; WT hepatocytes, FG-4952, 6 hours) | concentration at which HIF-1α destabilization was observed (HIF-1α [2]; WT hepatocytes, PHD inhibitor, 6 hours) [mM] | constitutively stabilized (hydroxylation-dead) HIF-1α mutant (HIF-1α [3]) | FG-4592 dependent HIF-1α stabilization (HIF-1α [3]; 10 mM) | inhibitory effect on Mrs2 activity (Mrs2 [4]) | effect on Mrs2 in intact hepatocytes (Mrs2 [5])
O=C(O)CC(O)(CC(=O)O)C(=O)O [citric acid] | replicates the observations in hepatocytes | partially resistant | partly maintained | very rapid and robust | destabilized HIF-1α | ≥ 6 | unaffected | completely blunted | – | –
N.N.N.N.N.N.[Cl-].[Cl-].[Cl-].[Co+3] [cobalt(III)hexaammine, Hexaamminecobalt (III) chloride, reference compound] | – | – | – | – | – | – | – | – | limited inhibition | absent
